Measured values published in publication PMC3297008, “Novel Marine Phenazines as Potential Cancer Chemopreventive and Anti-Inflammatory Agents” (Marine Drugs, 2012).
Read-outs that look alike come from different tables or passages of the source.

Tests used:
[1] = system: PGE2 production in LPS-induced RAW 264.7 cells; test: LPS-induced PGE2 production in RAW 264.7 cells (ELISA); assay type: cell-based; conditions: for IC50: read-out: PGE2 IC50; for inhibition at 50 µM: RAW264.7, read-out: PGE2 % inhibition (50 µM)
Method: RAW 264.7 cells (1 × 10^5 cells/well, 200 µL) were incubated in a 96-well culture plate in the presence of 5% CO2 at 37 °C for 24 h. The medium was changed to non-colored DMEM containing 5% FBS, and the cells were treated with various concentrations of compounds for 30 min followed by 1 μg/mL of LPS treatment for 24 h. Cell media were collected, diluted 18-times and used for measuring PGE2. Nunc-Immuno 96-well plates were coated with secondary antibody (goat anti-mouse IgG) affinity purified (Jackson Immuno Research Laboratories). Aliquots of cell media were added to the immune plate with primary PGE2 monoclonal antibody (Cayman Chemical) and a tracer PGE2-acetylcholinesterase (Cayman Chemical) and incubated overnight at room temperature in the dark. The next day, the wells were aspirated, washed, 200 µL of Elman’s reagent was added in each well, and incubated 2–5 h at 37 °C out of direct light until control wells reach an optical density 0.4–0.5. Gentle rotating/shaking was used to decrease the time required for color development. Absorbance was read at 412 nm. The PGE2 concentration of each sample was calculated from a PGE2 standard curve (PGE2 from Cayman Chemical). The percent inhibition as a function of the inhibitor concentration was graphed to determine the IC50 values (concentration at which there was 50% inhibition).

iNOS mRNA expression = iNOS mRNA expression in LPS-treated RAW 264.7 cells (real time quantitative PCR); assay type: cell-based; conditions: 50 µM
Source text: Figure 2 Effect of phenazines on COX-2 (black) and iNOS (gray) mRNA expression in RAW 264.7 cells. Total RNA was isolated using the TRIZOL® Reagent method (Invitrogen) from RAW 264.7 cells (2 × 10^5 cells/well) after treatment with samples. cDNA was synthesized using the RT^2 First Strand Kit (C-03, SA Biosciences) protocol. cDNA was used for quantitative real time PCRs with fluorescent Power SyBR® Green PCR master mix (Applied Biosystems), employing GAPDH, iNOS, COX-2 specific primers, and a 7300 Real Time PCR System (Applied Biosystems). The results were derived from two independent RNA preparations employing identical triplicates in each analysis and quantitated using GAPDH as the internal control, following the manufacturer’s instructions. (A) GAPDH standard curve for quantitation of iNOS and COX-2 expression; (B) Levels of COX-2 (black) and iNOS (gray) mRNA expression. The concentration and duration of treatment had no significant effect on the viability of Raw 264.7 cells.
Total mRNA samples were isolated, and cDNA was amplified with specific primers, using GAPDH as housekeeping gene. LPS induced the expression of COX-2 and iNOS mRNA by approximately 11- and 24-fold, respectively. […]
RAW 264.7 cells (2 × 10^5 cells/well) were treated with test samples and total RNA was isolated with TRIZOL® Reagent (Invitrogen). […] The results were derived from two independent RNA preparations employing identical triplicates in each analysis and quantified using GAPDH as the internal control, following the manufacturer’s instructions. The fluorescence intensity (Rn) corresponding to the cycle of threshold value (Ct) is used to quantitate a given mRNA, employing the GAPDH standard curve (Figure 3A). The equation Y = −3.9408 X + 31.791 was used to quantify the relative mRNA content, where Y represents the number of cycles corresponding to the Ct (i.e., fluorescence intensity for a given mRNA species), and X represents the log copy number (C0) from which the relative content of mRNA was quantitated. […]

NFκB = test: TNF-α-induced NFκB luciferase reporter assay in stably-transfected human embryonic kidney cells 293; assay type: cell-based; conditions: for IC50: human embryonic kidney cells 293 NFκB reporter, TNF-α 2 ng/mL, 6 h, read-out: IC50, inhibition of TNF-α-induced NFκB activity
Method: Activation of NFκB may promote cell proliferation or prevent cell death through apoptosis. Inhibition of NFκB signaling has potential application for the treatment or prevention of cancer; some inhibitors are known. […] […].
We employed human embryonic kidney cells 293 Panomic (Fremont, CA, USA) for monitoring changes occurring along the NFκB pathway. Stable constructed cells were seeded into sterile 96-well plate at 20 × 10^3 cells per well. Cells maintained in Dulbecco’s modified Eagle’s medium (DMEM) Invitrogen Co. (Carlsbad, CA, USA), supplemented with 10% FBS, 100 units/mL penicillin, 100 µg/mL streptomycin, 2 mM L-glutamine. After 48 h incubation, the medium was replaced and cells were treated with various concentration of test substances dissolved in PBS. TNF-α (Human, Recombinant, E. coli, Calbiochem, Gibbstown, NJ, USA) was used as an activator at a concentration of 2 ng/mL (0.14 nM). The plate was incubated for 6 h. Spent medium was discarded and the cells were washed once with PBS. Cells were lysed using 50 µL (for 96-well plate) Reporter Lysis Buffer from Promega, by incubating for 5 min on a shaker, and stored at −80 °C. The luciferase assay was performed using the Luc assay system from Promega (Madison, WI, USA). The gene product, luciferase enzyme, reacts with luciferase substrate, emitting light which was detected using a luminometer (LUMIstar Galaxy BMG). Data for NFκB constructs are expressed as IC50 values (i.e., concentration required to inhibit TNF-activated NFκB activity by 50%).

RAW 264.7 cells = test: Cell viability (SRB) of RAW 264.7 cells in the NO assay; assay type: cell-based; conditions: 50 µM
[2] = system: NO production in LPS-induced RAW 264.7 cells; test: LPS-induced NO production in RAW 264.7 cells (Griess reagent); conditions: for NO % inhibition (50 µM): LPS-induced RAW 264.7 cells; for inhibition at 50 µM / IC50: Mus musculus; for inhibition at 50 µM: RAW264.7, read-out: NO % inhibition (50 µM), LPS-induced RAW 264.7 cells, 50 µM; for IC50: RAW264.7, read-out: NO IC50
Method: The amount of nitrite was measured using the Griess reagent to assess the NO production [47, 48]. […] The cells were treated with various concentrations of compounds dissolved in phenol-red free DMEM for 30 min followed by 1 μg/mL of LPS treatment for 24 h. […] The standard curve was created by using known concentrations of sodium nitrite.

[3] = Mus musculus, RAW264.7, LPS-induced RAW 264.7 cells
[4] = Mus musculus, LPS-induced RAW 264.7 cells

| Compound | IC50 [1, 3] [µM] | inhibition at 50 µM [1, 4] [%] | suppression of iNOS mRNA expression (iNOS mRNA expression) [%] | IC50 (NFκB) [µM] | NO % cell survival (RAW 264.7 cells) [%] | NO % inhibition (50 µM) [2] [%] | inhibition at 50 µM [2] [%] | IC50 [2] [µM] | IC50 ([1]; LPS-induced RAW 264.7 cells) [µM] | enhancement of NFκB inhibitory activity by bromination at position-2 (NFκB; phenazine 1 compared with lavanducyanin) |
| --- | --- | --- | --- | --- | --- | --- | --- | --- | --- | --- |
| CC1=C(Cn2c3cccc(=O)c-3nc3ccccc32)CCC(C)(C)C1 [Lavanducyanin 3, lavanducyanin] | 0.63 ± 0.16 | 80.6 ± 18.4 | 46 | 16.3 | 58.3 ± 4.6 | 97 ± 0.7 | > 90 | 8 ± 0.39 | – | – |
| CC(C)=CCn1c2ccc(Br)c(=O)c-2nc2ccccc21 [Phenazine 2] | 0.89 ± 0.22 | 86.9 ± 12.9 | 43 | 24.2 | 56.0 ± 5.1 | 98.1 ± 0.5 | > 90 | 15.1 ± 2.7 | – | – |
| CC1=C(Cn2c3ccc(Br)c(=O)c-3nc3ccccc32)CCC(C)(C)C1 [Phenazine 1] | 7.5 | 72.5 ± 16.3 | 21 | 4.1 | 68.9 ± 3.8 | 40.1 ± 5 | 40 | > 48.6 | 7.15 ± 2.03 | approximately 4 fold |
